Several values for one entry are separate records, joined by “and”; a condition that tells them apart may be missing. Equal entries are not always repeated.
What was measured:
[1] = test system: Nexera™ canola (Brassica napus, BRSNN-NEX); test: Example 5 greenhouse trials, postemergence visual injury; conditions: for % Visual Injury Obs / Visual Injury Obs: BRSNN-NEX
[2] = test system: Aparima Gold swede (Brassica sp., BRSSS); test: Example 2 field trials (Canterbury, New Zealand), postemergence crop safety, visual phytotoxicity
[3] = test system: Aparima Gold swede (Brassica sp., BRSSS); test: Example 1 pot trials, postemergence crop safety, visual phytotoxicity
[4] = test system: Spring Argentine canola (Brassica napus, BRSNS); test: Example 3 field trials (Canada), postemergence crop safety, visual phytotoxicity
[5] = BRSNS, trial 1, 17DAA1, 0.62 g ae/ha
[6] = BRSNS, trial 1, 17DAA1, 1.25 g ae/ha
[7] = BRSNS, trial 1, 17DAA1, 2.5 g ae/ha
[8] = BRSNS, trial 1, 17DAA1, 5 g ae/ha
[9] = BRSNS, trial 1, 32DAA1, 0.62 g ae/ha

COC(=O)c1nc(-c2ccc(Cl)c(OC)c2F)cc(N)c1Cl [Halauxifen-methyl, methyl 4-amino-3-chloro-6-(4-chloro-2-fluoro-3-methoxyphenyl)-2-pyridineccarboxylate]
% Visual Injury Obs ([1]; 2.5 g ai/ha alone, 20-22 d): 15%
% Visual Injury Obs ([1]; 5 g ai/ha alone, 20-22 d): 20%
% Visual Injury Obs ([1]; 10 g ai/ha alone, 20-22 d): 23%
% Visual Injury Obs ([1]; halauxifen-methyl 2.5 g ai/ha): 15%
Visual Injury Obs ([1]; halauxifen-methyl 2.5 g ai/ha): 15%
% Visual Injury Obs ([1]; halauxifen-methyl 5 g ai/ha): 20%
Visual Injury Obs ([1]; halauxifen-methyl 5 g ai/ha): 20%
% Visual Injury Obs ([1]; halauxifen-methyl 10 g ai/ha): 23%
Visual Injury Obs ([1]; halauxifen-methyl 10 g ai/ha): 23%
Percent (%) Visual Injury BRSNN-NEX Obs ([1]; halauxifen-methyl alone 2.5 g ai/ha): 15%
Percent (%) Visual Injury BRSNN-NEX Obs ([1]; halauxifen-methyl alone 5 g ai/ha): 20%
Percent (%) Visual Injury BRSNN-NEX Obs ([1]; halauxifen-methyl alone 10 g ai/ha): 23%
Mean % Visual Growth Inhibition ([2]; 22DAA1, 7.5 g ae/ha): 25.0%
Mean % Visual Injury ([2]; 22DAA1, 7.5 g ae/ha): 32.5%
Mean % Visual Growth Inhibition ([2]; 28DAA1, 3.75 g ae/ha): 15.0%
Mean % Visual Injury ([2]; 28DAA1, 3.75 g ae/ha): 10.0%
Mean % Visual Growth Inhibition ([2]; 28DAA1, 7.5 g ae/ha): 22.5%
Mean % Visual Injury ([2]; 28DAA1, 7.5 g ae/ha): 27.5%
Mean % Visual Growth Inhibition ([2]; 56DAA1, 7.5 g ae/ha): 23.8%
Mean % Visual Injury ([3]; 3DAA1, 15 g ae/ha): 14.4%
Mean % Visual Injury ([3]; 7DAA1, 15 g ae/ha): 16.2%
Mean % Visual Injury ([3]; 15DAA1, 15 g ae/ha): 16.2%
Mean % Visual Injury ([3]; 28DAA1, 15 g ae/ha): 39.0%
Mean % Visual Injury ([4]; BRSNS, 7DAAA, 5 g ae/ha (Tables 10, 11)): 0.8%
Mean % Visual Injury ([4]; BRSNS, 15DAAA, 5 g ae/ha (Tables 10, 11)): 50.5%
Mean % Visual Injury ([4]; BRSNS, 27DAAA, 5 g ae/ha (Tables 10, 11)): 48.5%
Mean % Visual Injury ([4]; BRSNS, 57DAAA, 5 g ae/ha (Tables 10, 11)): 30.3%
Mean % Visual Injury ([4]; BRSNS, trial 1, 7DAA1, 1.25 g ae/ha): 1.8%
Mean % Visual Injury ([4]; BRSNS, trial 1, 7DAA1, 2.5 g ae/ha): 1.8%
Mean % Visual Injury ([4]; BRSNS, trial 1, 7DAA1, 5 g ae/ha): 2.0%
Mean % Visual Epinasty [4, 5]: 2.5%
Mean % Visual Injury [4, 5]: 2.5%
Mean % Visual Epinasty [4, 6]: 2.5%
Mean % Visual Injury [4, 6]: 2.5%
Mean % Visual Epinasty [4, 7]: 3.0%
Mean % Visual Injury [4, 7]: 3.3%
Mean % Visual Epinasty [4, 8]: 2.5%
Mean % Visual Injury [4, 8]: 3.3%
Mean % Visual Epinasty [4, 9]: 5.0%
Mean % Visual Injury [4, 9]: 8.3%
Mean % Visual Injury ([4]; BRSNS, trial 1, 32DAA1, 1.25 g ae/ha): 13.0%
Mean % Visual Injury ([4]; BRSNS, trial 1, 49DAA1, 0.62 g ae/ha): 0.3%
Mean % Visual Injury ([4]; BRSNS, trial 1, 49DAA1, 1.25 g ae/ha): 2.3%
Mean % Visual Injury ([4]; BRSNS, trial 1, 49DAA1, 2.5 g ae/ha): 2.5%
Mean % Visual Injury ([4]; BRSNS, trial 2, 8DAA1, 5 g ae/ha): 4.0% and 3.0% and 2.0%
Mean % Visual Injury ([4]; BRSNS, trial 2, 8DAA1, 10 g ae/ha): 4.8% and 3.3% and 2.8% and 2.0%
Mean % Visual Injury ([4]; BRSNS, trial 2, 17DAA1, 10 g ae/ha): 35.5%
Mean % Visual Epinasty ([4]; BRSNS, trial 2, 35DAA1, 10 g ae/ha): 4.0% and 2.8%
Mean % Visual Injury ([4]; BRSNS, trial 2, 48DAA1, 5 g ae/ha): 1.8% and 1.5%
Mean % Visual Epinasty ([4]; BRSNS, trial 3, 6DAA1, 5 g ae/ha): 9.5%
Mean % Visual Epinasty ([4]; BRSNS, trial 3, 6DAA1, 10 g ae/ha): 8.8%
Mean % Visual Epinasty ([4]; BRSNS, trial 3, 23DAA1, 2.5 g ae/ha): 38.8%
Mean % Visual Epinasty ([4]; BRSNS, trial 3, 23DAA1, 5 g ae/ha): 50.0%
Mean % Visual Injury ([4]; BRSNS, trial 3, 33DAA1, 5 g ae/ha): 6.5% and 2.0%
Mean % Visual Injury ([4]; BRSNS, trial 3, 33DAA1, 10 g ae/ha): 5.5%
Mean % Visual Injury ([4]; BRSNS, trial 3, 69DAA1, 2.5 g ae/ha): 3.0%
Mean % Visual Injury ([4]; BRSNS, trial 3, 69DAA1, 5 g ae/ha): 4.0%
Mean % Visual Injury ([4]; BRSNS, trial 4, 8DAA1, 5 g ae/ha): 8.0%
Mean % Visual Injury ([4]; BRSNS, trial 4, 15DAA1, 0.62 g ae/ha): 3.5%
Mean % Visual Injury ([4]; BRSNS, trial 4, 15DAA1, 2.5 g ae/ha): 14.3%
Mean % Visual Epinasty ([4]; BRSNS, trial 4, 17DAA1, 5 g ae/ha): 23.3%
Mean % Visual Injury ([4]; BRSNS, trial 4, 41DAA1, 5 g ae/ha): 8.0%
Mean % Visual Injury ([4]; BRSNS, trial 4, 82DAA1, 5 g ae/ha): 6.0%
Mean % Visual Injury ([4]; BRSNS, trial 5, 7DAA1, 5 g ae/ha): 7.5%
Mean % Visual Injury ([4]; BRSNS, trial 5, 7DAA1, 10 g ae/ha): 9.0% and 3.5% and 2.0% and 1.5%
Mean % Visual Injury ([4]; BRSNS, trial 5, 15DAA1, 5 g ae/ha): 27.0%
Mean % Visual Injury ([4]; BRSNS, trial 5, 15DAA1, 10 g ae/ha): 9.0% and 2.5% and 1.0%
Mean % Visual Injury ([4]; BRSNS, trial 5, 36DAA1, 10 g ae/ha): 6.0%
Mean % Visual Injury ([4]; BRSNS, trial 5, 79DAA1, 10 g ae/ha): 3.0% and 4.5% and 5.3%
Mean % Visual Injury ([4]; BRSNS, trial 6, 6DAA1, 5 g ae/ha): 24.5%
Mean % Visual Injury ([4]; BRSNS, trial 6, 6DAA1, 10 g ae/ha): 27.5%
Mean % Visual Injury ([4]; BRSNS, trial 6, 23DAA1, 2.5 g ae/ha): 38.8%
Mean % Visual Injury ([4]; BRSNS, trial 6, 23DAA1, 5 g ae/ha): 52.5%
Mean % Visual Injury ([4]; BRSNS, trial 6, 33DAA1, 2.5 g ae/ha): 22.5%
Mean % Visual Injury ([4]; BRSNS, trial 6, 33DAA1, 5 g ae/ha): 43.0%
Mean % Visual Injury ([4]; BRSNS, trial 6, 59DAA1, 2.5 g ae/ha): 28.5%
Mean % Visual Injury ([4]; BRSNS, trial 7, 17DAA1, 5 g ae/ha): 45.0%
Mean % Visual Injury ([4]; BRSNS, trial 7, 27DAA1, 5 g ae/ha): 34.0%
Mean % Visual Injury ([4]; BRSNS, trial 8, 7DAA1, 5 g ae/ha): 0.8%
Mean % Visual Injury ([4]; BRSNS, trial 8, 57DAA1, 0.62 g ae/ha): 4.8%
Mean % Visual Injury ([4]; BRSNS, trial 9, 27DAA1, 5 g ae/ha): 6.8%
Mean % Visual Injury ([4]; BRSNS, trial 9, 60DAA1, 10 g ae/ha): 22.5% and 12.5%
Mean % Visual Injury ([4]; Table 14, 7DAAA, halauxifen-methyl 5, quinclorac 101 g ae/ha, alone or mixed): 0.8%
Mean % Visual Injury ([4]; Table 14, 15DAAA, halauxifen-methyl 5, quinclorac 101 g ae/ha, alone or mixed): 50.5%
Mean % Visual Injury ([4]; Table 14, 27DAAA, halauxifen-methyl 5, quinclorac 101 g ae/ha, alone or mixed): 48.5%
